Assay results taken from patent US20120065228A1, “COMPOSITIONS AND METHODS FOR TREATING, CONTROLLING, REDUCING, OR AMELIORATING OCULAR INFLAMMATORY WITH LOWER RISK OF INCREASED INTRAOCULAR PRESSURE” (priority 2007, published 2012).

Assays:
[1] = tested on: pain following cataract surgery; assay: Clinical dose ranging study after cataract surgery: Grade 0 pain; format: in vivo, human
From the text: There were 8 treatment groups in this study, consisting of three drug doses, vehicle and three dosing frequencies (see also Table 4-1): • Group A: 1% BOL-303242-X ophthalmic suspension, two times per day (BID) • Group B: 2% BOL-303242-X ophthalmic suspension, one time per day (QD) • Group C: 2% BOL-303242-X ophthalmic suspension, BID • Group D: 2% BOL-303242-X ophthalmic suspension, four times per day (QID) • Group E: 3% BOL-303242-X ophthalmic suspension, QD • Group F: 3% BOL-303242-X ophthalmic suspension, BID • Group G: 3% BOL-303242-X ophthalmic suspension, QID • Group H: Vehicle for BOL-303242-X (divided equally into QID, BID, and QD)
At Visit 3 (postoperative Day 1, 18 to 34 hours following surgery), subjects meeting all eligibility criteria were randomized to one of the treatment groups continuing to be studied, including vehicle, in a 1:1 ratio.
Subjects self-administered study drug, instilling 1 to 2 drops of study drug into the study eye: QID at approximately 4 hour intervals, BID at approximately 12 hour intervals, or QD once in the morning, for 14 days. The initial dose occurred in the clinic at Visit 3 and the final dose was on the day before Visit 6 (postoperative Day 15±1 day). Subjects were examined and evaluated according to the following schedule:
Visit 1 (screening), Visit 2 (cataract surgery), Visit 3 (postoperative Day 1), Visit 4 (postoperative Day 3±1 day), Visit 5 (postoperative Day 8±1 day), Visit 6 (postoperative Day 15±1 day), Visit 7 (postoperative Day 18±1 day). Subject assessments included adverse events (AEs), concomitant medications, ocular symptoms, pinholed Snellen visual acuity (VA), intraocular pressure (IOP), ocular signs (biomicroscopy), fundoscopy, and study drug drop sensation. In addition, subject diaries were collected and reviewed for accuracy and treatment compliance.
Secondary Efficacy: The secondary efficacy endpoints for this study were the proportions of subjects with Grade 0 pain at Visit 5 (postoperative Day 8) and at each visit, complete resolution of AC cells at each visit, complete resolution of AC cells and flare at each visit, complete resolution of AC flare at each visit, change from baseline to each follow-up visit in AC cells and AC flare combined and separately, ocular symptoms.

[2] = tested on: IL-1β-stimulated cytokine expression in primary human corneal epithelial cells; assay: IL-1β-stimulated cytokine production in primary human corneal epithelial cells (30-cytokine Luminex kit); conditions: primary HCECs, 10 ng/ml IL-1β, 18 h
Description: Primary HCECs were seeded in 24-well plates. […] Each treatment was performed in triplicate. Media were collected and used for determination of cytokine content using a 30-cytokine Luminex kit. Cell viability was determined by alamarBlue assay (LP06013).
Median fluorescence intensity (MFI) was used to obtain the concentration of each cytokines in pg/ml based on the standard curve of each cytokine assayed by Luminex. The linear range of the standard curve for each cytokine was used for determination of cytokine concentration. Duplicate values for each sample were averaged. Data were expressed as mean±SD. Statistical analysis was performed using one-way ANOVA-Dunnett's test, and P<0.05 was considered statistically significant.

Cc1ccc2c(NCC(O)(CC(C)(C)c3cc(F)cc4c3OCC4)C(F)(F)F)cccc2n1 (centres unmarked) [BOL-303242-X]
Proportion of subjects with Grade 0 pain ([1]; 1% BID, Visit 6 (postoperative Day 15)): 61.7% | Proportion of subjects with Grade 0 pain ([1]; 1% BID, Visit 7 (postoperative Day 18)): 61.7% | Proportion of subjects with Grade 0 pain ([1]; 2% BID, Visit 6 (postoperative Day 15)): 57.1% | Proportion of subjects with Grade 0 pain ([1]; 2% BID, Visit 7 (postoperative Day 18)): 53.6% | Proportion of subjects with Grade 0 pain ([1]; 2% QD, Visit 6 (postoperative Day 15)): 57.1% | Proportion of subjects with Grade 0 pain ([1]; 2% QD, Visit 7 (postoperative Day 18)): 57.1% | Proportion of subjects with Grade 0 pain ([1]; 2% QID (printed 296 QID), Visit 5 (postoperative Day 8)): 78.396% | Proportion of subjects with Grade 0 pain ([1]; 2% QID, Visit 4 (postoperative Day 3)): 73.3% | Proportion of subjects with Grade 0 pain ([1]; 2% QID, Visit 6 (postoperative Day 15)): 75.0% | Proportion of subjects with Grade 0 pain ([1]; 2% QID, Visit 7 (postoperative Day 18)): 71.7% | Proportion of subjects with Grade 0 pain ([1]; 3% BID, Visit 4 (postoperative Day 3)): 70.0% | Proportion of subjects with Grade 0 pain ([1]; 3% BID, Visit 5 (postoperative Day 8)): 75.0% | Proportion of subjects with Grade 0 pain ([1]; 3% BID, Visit 6 (postoperative Day 15)): 68.3% | Proportion of subjects with Grade 0 pain ([1]; 3% QD, Visit 4 (postoperative Day 3)): 81.4% | Proportion of subjects with Grade 0 pain ([1]; 3% QD, Visit 5 (postoperative Day 8)): 71.2% | Proportion of subjects with Grade 0 pain ([1]; 3% QD, Visit 6 (postoperative Day 15)): 71.2% | Proportion of subjects with Grade 0 pain ([1]; 3% QD, Visit 7 (postoperative Day 18)): 66.1% | Proportion of subjects with Grade 0 pain ([1]; 3% QID, Visit 4 (postoperative Day 3)): 66.7% | Proportion of subjects with Grade 0 pain ([1]; 3% QID, Visit 5 (postoperative Day 8)): 70.0% | Proportion of subjects with Grade 0 pain ([1]; 3% QID, Visit 6 (postoperative Day 15)): 70.0% | Effect on IL-1β-stimulated G-CSF production [2]: significantly inhibited | Effect on IL-1β-stimulated production of 6 cytokines (IL-6, IL-7, MCP-1, TGF-α, TNF-α and VEGF) ([2]; comparable potency): significantly inhibited | Effect on IL-1β-stimulated production of 3 cytokines (GM-CSF, IL-8, and RANTES) ([2]; less potency compared to dexamethasone): significantly inhibited
